How the values were obtained:
Test in all cases: relative viability (nuclei count vs DMSO), 5 days (fraction); higher = more cells survive
PAC-1 + Vorinostat = compound: C=CCc1cccc(/C=N/NC(=O)CN2CCN(Cc3ccccc3)CC2)c1O [PAC-1] + O=C(CCCCCCC(=O)Nc1ccccc1)NO [Vorinostat] (partner 1 µM)
In short: (§1)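 Five library-drug doses in √10 steps were combined with a fixed anchor-drug dose, or a single drug was given alone, by pin tool to lung cancer cell lines in 1536-well plates the day after seeding. Nuclei were stained and counted after 5 days. Relative viability is the nuclei count in treated wells over that in vehicle wells, taken as the median of duplicate plates.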

Ibrutinib + Linsitinib = compound: C=CC(=O)N1CCC[C@@H](n2nc(-c3ccc(Oc4ccccc4)cc3)c3c(N)ncnc32)C1 [Ibrutinib] + C[C@]1(O)C[C@@H](c2nc(-c3ccc4ccc(-c5ccccc5)nc4c3)c3c(N)nccn32)C1 [Linsitinib] (partner 1 µM)
In short: as §1

PAC-1 + Olaparib = compound: C=CCc1cccc(/C=N/NC(=O)CN2CCN(Cc3ccccc3)CC2)c1O [PAC-1] + O=C(c1cc(Cc2n[nH]c(=O)c3ccccc23)ccc1F)N1CCN(C(=O)C2CC2)CC1 [Olaparib] (partner 8 µM)
In short: as §1

Ibrutinib + Phenformin = compound: C=CC(=O)N1CCC[C@@H](n2nc(-c3ccc(Oc4ccccc4)cc3)c3c(N)ncnc32)C1 [Ibrutinib] + N=C(N)NC(=N)NCCc1ccccc1 [Phenformin] (partner 250 µM)
In short: as §1

**Q.** For SK-MES-1, which relative viability (PAC-1 + Vorinostat; first compound 0.02 µM) is on record?
**A.** 1.18

**Q.** What about the relative viability (PAC-1 + Vorinostat; first compound 0.06325 µM) of the same cell line?
**A.** 1.09

**Q.** And the relative viability (PAC-1 + Vorinostat; first compound 0.2 µM)?
**A.** 1.02

**Q.** And the relative viability (PAC-1 + Vorinostat; first compound 2 µM)?
**A.** 1.17

**Q.** What about the relative viability (Ibrutinib + Linsitinib; first compound 0.005 µM) of the same cell line?
**A.** 1.06

**Q.** And the relative viability (Ibrutinib + Linsitinib; first compound 0.01581 µM)?
**A.** 0.937

**Q.** And the relative viability (Ibrutinib + Linsitinib; first compound 0.05 µM)?
**A.** 1.11

**Q.** And the relative viability (Ibrutinib + Linsitinib; first compound 0.1581 µM)?
**A.** 1.06

**Q.** What about the relative viability (Ibrutinib + Linsitinib; first compound 0.5 µM) of the same cell line?
**A.** 0.447

**Q.** And the relative viability (PAC-1 + Olaparib; first compound 0.02 µM)?
**A.** 0.717

**Q.** What about the relative viability (PAC-1 + Olaparib; first compound 0.06325 µM) of the same cell line?
**A.** 0.711

**Q.** And the relative viability (PAC-1 + Olaparib; first compound 0.2 µM)?
**A.** 0.635

**Q.** What about the relative viability (PAC-1 + Olaparib; first compound 2 µM) of the same cell line?
**A.** 0.437

**Q.** What about the relative viability (Ibrutinib + Phenformin; first compound 0.005 µM) of the same cell line?
**A.** 0.733

**Q.** And the relative viability (Ibrutinib + Phenformin; first compound 0.01581 µM)?
**A.** 0.629

**Q.** And the relative viability (Ibrutinib + Phenformin; first compound 0.05 µM)?
**A.** 0.638

**Q.** And the relative viability (Ibrutinib + Phenformin; first compound 0.1581 µM)?
**A.** 0.704

**Q.** What about the relative viability (Ibrutinib + Phenformin; first compound 0.5 µM) of the same cell line?
**A.** 0.501
